Experiments:
AMAPA (palmer amaranth) = experiment: Greenhouse post-emergence weed control, damage vs untreated (AMAPA); assay type: in vivo, Amaranthus palmeri; settings: 20 DAT
Method: (§1) A greenhouse study was conducted to evaluate the effect of the alkylether sulfates of formula (I) and other adjuvants on the weed control efficacy of glufosinate. Seedlings of grass plants (AVEFA, ECHCG, DIGSA and SETVI) and broadleaf weeds (KCHSC, CHEAL, AMAPA, AMATA and ABUTH) were grown to a height of 3 to 20 cm, depending on the plant habit in 10×10×10 cm pots filled with sandy planting soil (Limburgerhof soil). The weeds were treated with postemergence applications of glufosinate ammonium at the respective application rates given in the following tables, either alone or combined with various amounts of the respective adjuvants.
(§2) For this, the herbicide formulation and the respective adjuvant were introduced into tap water to obtain the spray liquor. […] The spray liquor was then applied to the plant a spray volume of 200 l/ha using a sprayer (XR Teejet 110015).
(§3) The test period extended over 21 days. During this time, the plants were tended, and their response to the treatments with active compound was evaluated.
(§4) The evaluation for the damage caused by the chemical compositions was carried out using a scale from 0 to 100%, compared to the untreated control plants. Here, 0 means no damage and 100 means complete destruction of the plants.
(§5) The plants used in the greenhouse experiments belonged to the following species:
(§6) The results are summarized in the following tables 1 to 15 that show the applied doses of the individual actives as gram of active ingredient per hectare (g ai/ha), the herbicidal activity of the individual actives and of their combinations in post-emergence application assessed 14 and 28 day after treatment (DAT), respectively.

[1] = system: AMATA (common water hemp); experiment: Greenhouse post-emergence weed control, damage vs untreated (AMATA); assay type: in vivo, Amaranthus tuberculatus; settings: 20 DAT
Method: as §1, §2, §3, §4, §5, §6

[2] = 5 g ai/ha L-glufosinate (so in the source), no adjuvant
[3] = 37.5 g ai/ha L-glufosinate, adjuvant g ai/ha: none (CE1-B), 56 (IE2-A), 62.125 (IE2-B), 51.625 (CE2-F)
[4] = 150 g ai/ha L-glufosinate, adjuvant g ai/ha: none (CE1-B), 223 (IE2-A), 248.5 (IE2-B), 206.5 (CE2-F)
[5] = 300 g ai/ha L-glufosinate, adjuvant g ai/ha: none (CE1-B), 446 (IE2-A), 497 (IE2-B), 413 (CE2-F)

CP(=O)(O)CC[C@H](N)C(=O)O.N [CE1-B, ammonium (2S)-2-amino-4-(methylphosphinato)butyric acid]
% activity (AMAPA (palmer amaranth); [2]): 60%
% activity (AMAPA (palmer amaranth); [3]): 98%
% activity (AMAPA (palmer amaranth); [4]): 98%
% activity (AMAPA (palmer amaranth); [5]): 98%
% activity [1, 2]: 95%
% activity [1, 3]: 20%
% activity [1, 4]: 98%
% activity [1, 5]: 98%

Source: US20260344661A1, “USE OF AN ALKYLETHER SULFATE FOR IMPROVING THE EFFICACY OF HERBICIDES” (BASF SE, priority 2022, published 2026)
